This passage reports Kd results from PMC5681751 (Angewandte Chemie (International ed. in English), 2017).

The target in the assay is T1, CblC (Homo sapiens, UniProt Q9Y4U1).
T1 sequence (Q9Y4U1 1-282): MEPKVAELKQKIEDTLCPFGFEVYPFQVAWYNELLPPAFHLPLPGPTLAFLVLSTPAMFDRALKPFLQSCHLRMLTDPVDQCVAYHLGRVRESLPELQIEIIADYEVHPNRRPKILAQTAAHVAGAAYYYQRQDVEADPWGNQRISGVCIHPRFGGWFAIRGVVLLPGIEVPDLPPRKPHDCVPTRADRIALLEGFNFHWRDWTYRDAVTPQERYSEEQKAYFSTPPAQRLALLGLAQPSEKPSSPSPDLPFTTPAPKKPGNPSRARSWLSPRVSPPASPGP
Kind of assay: isothermal titration calorimetry. The conditions noted are these: in the presence of glutathione (GSH); base-off binding. On the technique in general: In ITC the heat of successive injections is recorded.

On to PhEtyCbl [compound 2], for which the Kd came to 30 nM.

Broadly, the Kd is the equilibrium constant for the complex coming apart.
